# Measurements reported in paper PMC8381290 (Journal of medicinal chemistry, 2021).
# What was measured:
# RPE65 [1] = target: T1, RPE65 (Bos taurus, UniProt Q28175); settings: RPE65 inhibition; cited from earlier work
# [2] = assay type: in vivo, mouse; settings: for distribution within ocular tissue / accumulation in the eye compared with emixustat: single 380 nmol i.p. dose
# RPE65 [3] = target: T1, RPE65; assay: RPE65 retinoid isomerase activity assay; settings: ratio of IC50 values
# [4] = 3 h after single 380 nmol i.p. dose
# T1 sequence (Q28175 whole entry): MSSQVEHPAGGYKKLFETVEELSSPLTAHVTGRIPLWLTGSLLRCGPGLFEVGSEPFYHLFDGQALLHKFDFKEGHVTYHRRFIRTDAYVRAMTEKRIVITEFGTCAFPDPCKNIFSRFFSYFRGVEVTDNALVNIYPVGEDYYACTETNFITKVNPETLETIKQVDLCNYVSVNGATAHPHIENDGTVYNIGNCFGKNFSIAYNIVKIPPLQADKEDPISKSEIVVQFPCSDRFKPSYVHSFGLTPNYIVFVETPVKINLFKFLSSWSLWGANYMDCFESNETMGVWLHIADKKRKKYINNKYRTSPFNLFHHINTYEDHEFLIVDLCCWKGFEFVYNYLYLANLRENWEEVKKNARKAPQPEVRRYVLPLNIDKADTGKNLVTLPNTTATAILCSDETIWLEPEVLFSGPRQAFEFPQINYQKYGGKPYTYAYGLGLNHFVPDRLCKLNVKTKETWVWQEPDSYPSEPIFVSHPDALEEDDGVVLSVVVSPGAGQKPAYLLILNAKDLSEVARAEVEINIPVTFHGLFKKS
initial plasma (serum) level [4],accumulation in the eye compared with emixustat [2],Structure (SMILES),distribution within ocular tissue [2],also measured
,,CCCC(CCC)COc1cccc([C@H](O)CCN)c1 [(R)-MB-004],,IC50 (RPE65 [1]): 106 ± 16 nM
highest initial plasma levels,,"CCCC(CCC)COc1cc([C@H](O)CCN)ccc1F [Compound 24, (R)-3-Amino-1-(4-fluoro-3-((2-propylpentyl)oxy)phenyl)propan-1-ol]",poorest distribution within ocular tissue,inhibitory potency relative to racemic emixustat (RPE65 [3]): 3 times
highest initial plasma levels,,"NCCC(O)c1ccc(F)c(OCC2CCCCC2)c1 (stereo not shown) [Compound 49, 3-Amino-1-(3-(cyclohexylmethoxy)-4-fluorophenyl)propan-1-ol]",poorest distribution within ocular tissue,
,accumulate more,"NCCC(O)c1cccc(OCC2CCC(F)(F)CC2)c1 (stereo not shown) [Compound 57, 3-Amino-1-(3-((4,4-difluorocyclohexyl)methoxy)phenyl) propan-1-ol]",,eye amount relative to compounds 24 and 49 ([2]; day 7 after single i.p. dose): 10 times; eye amount relative to emixustat ([2]; day 7 after single i.p. dose): 5 times
,accumulate more,"[2H]C([2H])(N)CC(O)c1cccc(OCC2CCC(F)(F)CC2)c1 (stereo not shown) [Compound 59, 3-Amino-1-(3-((4,4-difluorocyclohexyl)methoxy)phenyl)propan-3,3-d2-1-ol]",,
